Where a name gives a salt, the structure may show the parent alone. Read-outs that look alike come from different tables or passages of the source.
Legend:
[1] = test system: whole CD4+ cells from a healthy donor; assay: Th17 polarizing cytokines: IL-17 secretion from human CD4+ cells (ELISA); format: cell-based; conditions: for induction of IL-17 secretion: compared with cytokines from insect cell or bacterial expression system, 5 days; for Th17 cell polarization: separate study, same condition
Source text: IL-17-producing CD4+ T cells (Th-17 cells) have been identified as a unique subset of Th cells that develop along a pathway that is distinct from the Th1, and Th2-cell differentiation pathways. This finding has provided exciting new insights into immunoregulation, host defense and the pathogenesis of autoimmune diseases. Recently it has been shown that IL1β, IL6 and IL23 are important in driving human Th17 differentiation. However, TGF-β1, which is important for the differentiation of murine Th17 cells, is reported to be not required, and even inhibits human Th17 differentiation (McGeachy & Cua (2008) Immunity 28:445, Chen & O'Shea (2008) Cytokines 41:71). In this study, whole […] cells isolated from a healthy donor were stimulated with 10 μg/mL plate bound anti-CD3 and 10 μg/ml soluble anti-CD28 in the presence of Th17 polarizing cytokines from the inventive human cell expression system and from an insect cell or bacterial expression system. After 5 days supernatants were harvested for measurement of IL-17 by ELISA.

[2] = biological target: p38α produced and activated in human cells (Homo sapiens, UniProt Q16539); assay: Kinase inhibitor IC50 determination with p38α produced in human cells; format: biochemical; conditions: read-out: IC50, Human Cell
[3] = biological target: p38α expressed in E. coli, Vendor A, in vitro activated by MKK6 (Homo sapiens, UniProt Q16539); assay: Kinase inhibitor IC50 determination with E. coli p38α (Vendor A, E coli-I); format: biochemical
[4] = biological target: p38α expressed in E. coli, Vendor B, in vitro activated by MKK6 (Homo sapiens, UniProt Q16539); assay: Kinase inhibitor IC50 determination with E. coli p38α (Vendor B, E coli-II); format: biochemical
human TF-1 cells = assay: IL-4 bioactivity: dose-dependent stimulation of proliferation of TF-1 cells; format: cell-based; conditions: TF-1 cell proliferation
[5] = Km.ATP of p38α preparations; format: biochemical
naïve T cell (Th0) = assay: Differentiation of naive T cell (Th0) to Th17 cells, flow cytometry; format: cell-based; conditions: compared with human platelet derived native TGF-β1 (positive control)
Protocol: (§1) FIG. 22: Efficient differentiation of Th17 cells with authentic cytokines expressed in human cells. Whole CD4+ T cells isolated from a healthy donor were stimulated with 2 μg/mL plate bound anti-CD3 and 1 μg/mL soluble anti-CD28 in the presence of Th17 polarizing cytokines, including a titration of IL-23. After 5 days, supernatants were harvested for measurement of IL-17 by ELISA. See (A)-(G). FIG. 22 (H) depicts flow cytometry analysis on Human Th17 Differentiation by Authentic human TGF-β1. See Example 17 below.

human CD4+ T cells = assay: IL-23 activity: IL-17 secretion from human CD4+ T cells (ELISA); format: cell-based; conditions: human CD4+ cells, 5 days
Protocol: (A) IL-23 activities determined by the dose-dependent secretion of IL-17 from mouse splenocytes activated with 10 ng/ml PMA. (B) IL-23 activities determined by the dose-dependent secretion of IL-17 from human CD4+ T cells stimulated with […] plate bound anti-CD3 and […] soluble anti-CD28 in the presence of Th17 polarizing cytokines.
as §1
IL-17-producing CD4+ T cells (Th17 cells) have been identified as a unique subset of T helper cells that develop along a pathway that is distinct from the Th1 and Th2-cell differentiation pathways. This finding has provided exciting new insights into immunoregulation, host defense and the pathogenesis of autoimmune diseases. Recently it has been shown that TGF-β1, […], IL-6 and IL-23 are important in driving human Th17 differentiation (Chen & O'Shea (2008) Cytokines 41:71). […] The activities were further assayed with human CD4+ cells which were isolated from a healthy donor and stimulated with 10 μg/ml plate bound anti-CD3 and 10 μg/ml soluble anti-CD28 in the presence of Th17 polarizing cytokines. After 5 days supernatants were harvested for measurement of IL-17 by ELISA.

[6] = test system: human embryonic stem (hES) cells; assay: Oct3/4 expression in Noggin-treated human embryonic stem cells (Western blot); format: cell-based; conditions: 10 pg/ml and 20 pg/ml treatment
[7] = test system: human umbilical vein endothelial cells; assay: VEGF165 bioactivity: proliferation of human umbilical vein endothelial cells; format: cell-based; conditions: HUVEC proliferation
[8] = p38α from E. coli, Vendor A, read-out: IC50, E coli-I
[9] = p38α from E. coli, Vendor B, read-out: IC50, E coli-II

Chain of p38α expressed in E. coli, Vendor B, in vitro activated by MKK6 (Q16539 whole entry): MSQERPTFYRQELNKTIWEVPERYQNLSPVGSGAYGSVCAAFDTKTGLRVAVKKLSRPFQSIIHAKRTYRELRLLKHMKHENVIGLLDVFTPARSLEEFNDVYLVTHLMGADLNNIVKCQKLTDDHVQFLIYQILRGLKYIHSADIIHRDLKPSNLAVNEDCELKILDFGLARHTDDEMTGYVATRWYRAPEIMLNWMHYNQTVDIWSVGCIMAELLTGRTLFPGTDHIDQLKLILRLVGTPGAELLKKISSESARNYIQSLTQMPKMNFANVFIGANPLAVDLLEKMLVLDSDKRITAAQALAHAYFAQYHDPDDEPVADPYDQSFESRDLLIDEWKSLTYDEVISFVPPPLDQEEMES
Chain of p38α produced and activated in human cells (Q16539 whole entry): as above
Chain of p38α expressed in E. coli, Vendor A, in vitro activated by MKK6 (Q16539 whole entry): as above

Molecule: TGF-β1 from insect cells: TGF-β1 cytokine from insect cells used as comparator
- induction of IL-17 secretion [1]: marginal effect

Molecule: O=S(=O)(NCCNC/C=C/c1ccc(Br)cc1)c1cccc2cnccc12 [H89 Dihydrochloride]
- IC50 ([2]; p38α produced in human cells): > 10 µM
- IC50 [3, 8]: > 10 µM
- IC50 [4, 9]: > 10 µM

Molecule: CC(=O)c1c(O)c(C)c(O)c(Cc2c(O)c3c(c(C(=O)/C=C/c4ccccc4)c2O)OC(C)(C)C=C3)c1O [Rottlerin]
- IC50 [2]: >200 µM
- IC50 [3]: > 200 µM
- IC50 [4]: > 200 µM

Molecule: IL1β: recombinantly-produced, authentic human IL1β from the human cell expression system
- induction of IL-17 secretion [1]: significantly more effective

Molecule: IL4: IL4 from human cells, glycosylated major band of 19 kD; SEQ ID NO: 22
- fold higher potency than the E. coli expressed cytokine (human TF-1 cells): 4 fold

Molecule: CN(C)C[C@H]1CCn2c(c(C3=C(c4cn(C)c5ccccc45)C(=O)NC3=O)c3ccccc32)C1 [Ro 32-0432]
- IC50 ([2]; p38α produced in human cells): > 10 µM
- IC50 [3, 8]: > 10 µM
- IC50 [4, 9]: > 10 µM

Molecule: Vendor preparation: p38α from Vendor A, expressed and purified from E. coli, in vitro activated by MKK6
- Km [5]: 212 ± 26 µM

Molecule: authentic p38α: recombinantly-produced, authentic human p38a produced and activated in human cells in the presence of arsenite
- Km [5]: 109 ± 12 µM

Molecule: Vendor B enzyme: p38α from Vendor B, expressed and purified from E. coli, in vitro activated by MKK6
- Km [5]: 120 µM

Molecule: COC(=O)[C@@]1(O)C[C@H]2O[C@]1(C)n1c3ccccc3c3c4c(c5c6ccccc6n2c5c31)C(=O)NC4 [K252a]
- IC50 [2]: 0.005 µM
- IC50 [3]: > 10 µM
- IC50 [4]: > 10 µM

Molecule: NCCNS(=O)(=O)c1cccc2cnccc12 [H-9 dihydrochloride]
- IC50 ([2]; p38α produced in human cells): > 10 µM
- IC50 [3, 8]: > 10 µM
- IC50 [4, 9]: > 10 µM

Molecule: CN(C)CCCn1cc(C2=C(c3c[nH]c4ccccc34)C(=O)NC2=O)c2ccccc21 [GF 109203X]
- IC50 [2]: > 10 µM
- IC50 [3, 8]: > 10 µM
- IC50 [4, 9]: > 10 µM

Molecule: Nc1ncnc2c1c(I)cn2[C@@H]1O[C@H](CO)[C@@H](O)[C@H]1O [5-iodotubercidin]
- IC50 [2]: > 10 µM
- IC50 ([3]; read-out: IC50, E coli-I): > 10 µM
- IC50 ([4]; read-out: IC50, E coli-II): > 10 µM

Molecule: Cn1cc(C2=C(c3cn(CCCSC(=N)N)c4ccccc34)C(=O)NC2=O)c2ccccc21 [Ro 31-8220]
- IC50 ([2]; p38α produced in human cells): 9.9 µM
- IC50 [3, 8]: > 10 µM
- IC50 [4, 9]: > 10 µM

Molecule: IL6: recombinantly-produced, authentic human IL6; SEQ ID NO: 16
- induction of IL-17 secretion [1]: significantly more effective

Molecule: authentic human TGF-β1: TGF-β1 from engineered human 293 cells, disulfide-linked dimer of 25 kD
- induction of IL-17 secretion [1]: effective in enhancing the effect
- Th17 cell polarization [1]: can effectively induce Th17 cell polarization
- differentiation of Th0 to Th17 cells (IL-17 and INF-γ producing cells) (naïve T cell (Th0)): matched human platelet derived native TGF-β1

Molecule: CCCCCCOC(=O)[C@]1(O)C[C@@H]2O[C@@]1(C)n1c3ccccc3c3c4c(c5c6ccccc6n2c5c31)C(=O)NC4 [KT5720]
- IC50 ([2]; p38α produced in human cells): 5 µM
- IC50 [3, 8]: > 10 µM
- IC50 [4, 9]: > 10 µM

Molecule: Nc1ncnc2c1ncn2[C@@H]1O[C@H](COP(=O)(O)OP(=O)(O)NP(=O)(O)O)[C@@H](O)[C@H]1O [AMP-PNP]
- IC50 ([2]; p38α produced in human cells): 257 µM
- fold less sensitive than human cell p38α ([3]; Vendor A preparation vs p38α from human cells): 7 fold
- IC50 [3, 8]: 1810 µM
- IC50 [4, 9]: > 2000 µM

B1: insect cell-produced IL-23: commercially available recombinant IL-23 from an insect cell expression system (protein, UniProt Q9NPF7 20-189; P29460 23-328, looked up)
Interleukin-23 subunit alpha: RAVPGGSSPAWTQCQQLSQKLCTLAWSAHPLVGHMDLREEGDEETTNDVPHIQCGDGCDPQGLRDNSQFCLQRIHQGLIFYEKLLGSDIFTGEPSLLPDSPVGQLHASLLGLSQLLQPEGHHWETQQIPSLSPSQPWQRLLLRFKILRSLQAFVAVAARVFAHGAATLSP
Interleukin-12 subunit beta: IWELKKDVYVVELDWYPDAPGEMVVLTCDTPEEDGITWTLDQSSEVLGSGKTLTIQVKEFGDAGQYTCHKGGEVLSHSLLLLHKKEDGIWSTDILKDQKEPKNKTFLRCEAKNYSGRFTCWWLTTISTDLTFSVKSSRGSSDPQGVTCGAATLSAERVRGDNKEYEYSVECQEDSACPAAEESLPIEVMVDAVHKLKYENYTSSFFIRDIIKPDPPKNLQLKPLKNSRQVEVSWEYPDTWSTPHSYFSLTFCVQVQGKSKREKKDRVFTDKTSATVICRKNASISVRAQDRYYSSSWSEWASVPCS
- concentration at which maximum induction of IL-17 secretion was achieved (human CD4+ T cells): 10 ng/mL

B2: authentic human Noggin: Noggin from human 293 cell expression system, glycosylated, disulfide-linked dimer; SEQ ID NO: 24 (protein)
chain: QHYLHIRPAPSDNLPLVDLIEHPDPIFDPKEKDLNETLLRSLLGGHYDPGFMATSPPEDRPGGGGGAAGGAEDLAELDQLLRQRPSGAMPSEIKGLEFSEGLAQGKKQRLSKKLRRKLQMWLWSQTFCPVLYAWNDLGSRFWPRYVKVGSCFSKRSCSVPEGMVCKPSKSVHLTVLRWRCQRRGGQRCGWIPIQYPIISECKCSC
modifications: glycosylated disulfide-linked homodimer
- Oct3/4 expression (marker for undifferentiated hES cells) [6]: consistently expressed Oct3/4
- Oct3/4 expression (marker for undifferentiated hES cells) ([6]; listed as authentic human homodimer Noggin): expresses so effectively and consistently Oct3/4

B3: TGF-β2: TGF-β2 from engineered human 293 cells, disulfide-linked dimer of 25 kD (protein, UniProt P61812 303-414, looked up)
Transforming growth factor …: ALDAAYCFRNVQDNCCLRPLYIDFKRDLGWKWIHEPKGYNANFCAGACPYLWSSDTQHSRVLSLYNTINPEASASPCCVSQDLEPLTILYYIGKTPKIEQLSNMIVKSCKCS
- Th17 cell polarization [1]: can effectively induce Th17 cell polarization

B4: authentic human VEGF165: VEGF165 from engineered human 293 cells, glycosylated homodimer of 45 kD; SEQ ID NO: 2 (protein)
chain: APMAEGGGQNHHEVVKFMDVYQRSYCHPIETLVDIFQEYPDEIEYIFKPSCVPLMRCGGCCNDEGLECVPTEESNITMQIMRIKPHQGQHIGEMSFLQHNKCECRPKKDRARQENPCGPCSERRKHLFVQDPQTCKCSCKNTDSRCKARQLELNERTCRCDKPRR
modifications: glycosylated homodimer
- fold more active than the E. coli expressed protein [7]: 10 fold
- fold more active than the E. coli expressed protein ([7]; listed as VEGF165): 6 fold

B5: TGF-β3: TGF-β3 from engineered human 293 cells, disulfide-linked dimer of 25 kD (protein, UniProt P10600 301-412, looked up)
Transforming growth factor …: ALDTNYCFRNLEENCCVRPLYIDFRQDLGWKWVHEPKGYYANFCSGPCPYLRSADTTHSTVLGLYNTLNPEASASPCCVPQDLEPLTILYYVGRTPKVEQLSNMVVKSCKCS
- Th17 cell polarization [1]: can effectively induce Th17 cell polarization

Reference: patent publication US8236527B2, “Recombinant production of authentic human proteins using human cell expression systems” (Humanzyme Limited, priority 2008, dated 2012)
